Columns and labels:
JAK2 = biological target: T1, JAK2 (Homo sapiens, UniProt O60674); test: KdELECT binding assay
T1 construct: purchased Eurofins DiscoverX

[1] = tested on: CaMK2a, CaMK2b, CaMK2d, CaMK2g; test: KiNativ, OCI cells live cell; assay type: cell-based, human; details: labeling site Lys2, peptide DLKPENLLLASK
CDK10 = CDK10 (Homo sapiens, UniProt Q15131); test: KiNativ, OCI cells live cell; assay type: cell-based; details: 2 h, labeling site Lys2, peptide […]
IRAK3 = biological target: T2, IRAK3 (Homo sapiens, UniProt Q9Y616); test: KiNativ, OCI cells live cell; assay type: cell-based; details: 2 h
T2 sequence (Q9Y616 1-596): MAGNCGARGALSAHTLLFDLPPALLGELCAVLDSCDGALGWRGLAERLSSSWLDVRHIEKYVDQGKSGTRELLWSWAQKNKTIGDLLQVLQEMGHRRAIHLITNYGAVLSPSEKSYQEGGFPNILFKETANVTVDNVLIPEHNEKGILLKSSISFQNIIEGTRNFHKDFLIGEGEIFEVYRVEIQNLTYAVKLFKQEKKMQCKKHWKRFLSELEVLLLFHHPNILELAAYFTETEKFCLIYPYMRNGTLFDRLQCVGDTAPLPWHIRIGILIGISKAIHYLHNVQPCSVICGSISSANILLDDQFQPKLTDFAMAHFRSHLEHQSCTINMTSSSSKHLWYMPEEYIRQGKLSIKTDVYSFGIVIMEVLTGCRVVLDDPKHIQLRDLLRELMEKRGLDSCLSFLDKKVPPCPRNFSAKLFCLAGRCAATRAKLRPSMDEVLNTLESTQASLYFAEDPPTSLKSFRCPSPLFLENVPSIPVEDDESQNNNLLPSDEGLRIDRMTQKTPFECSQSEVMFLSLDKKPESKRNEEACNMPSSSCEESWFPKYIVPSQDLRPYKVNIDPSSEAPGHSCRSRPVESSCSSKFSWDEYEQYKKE

MAP2K1 = MAP2K1 (Homo sapiens, UniProt Q02750); test: KiNativ, OCI cells live cell; assay type: cell-based; details: 2 h, labeling site Lys2, peptide […]
MAP3K1 = MAP3K1 (Homo sapiens, UniProt Q13233); test: KiNativ, OCI cells live cell; assay type: cell-based; details: 2 h, labeling site Lys2, peptide […]
MAP3K2, MAP3K3 = test: KiNativ, OCI cells live cell; assay type: cell-based, human; details: labeling site Lys2, peptide DIKGANILR
MAP4K5 = MAP4K5 (Homo sapiens, UniProt Q9Y4K4); test: KiNativ, OCI cells live cell; assay type: cell-based; details: 2 h
MARK2 = MARK2 (Homo sapiens, UniProt Q7KZI7); test: KiNativ, OCI cells live cell; assay type: cell-based; details: 2 h, labeling site Lys1, peptide […]
MLK4 = MLK4 (Homo sapiens, UniProt Q5TCX8); test: KiNativ, OCI cells live cell; assay type: cell-based; details: 2 h, labeling site Lys2, peptide […]
NDR2 = NDR2 (Homo sapiens, UniProt Q9Y2H1); test: KiNativ, OCI cells live cell; assay type: cell-based; details: 2 h
p70S6Kb = p70S6Kb (Homo sapiens, UniProt Q9UBS0); test: KiNativ, OCI cells live cell; assay type: cell-based; details: 2 h
PAN3 = biological target: T3, PAN3 (Homo sapiens, UniProt Q58A45); test: KiNativ, OCI cells live cell; assay type: cell-based; details: 2 h, labeling site ATP
T3 sequence (Q58A45 1-887): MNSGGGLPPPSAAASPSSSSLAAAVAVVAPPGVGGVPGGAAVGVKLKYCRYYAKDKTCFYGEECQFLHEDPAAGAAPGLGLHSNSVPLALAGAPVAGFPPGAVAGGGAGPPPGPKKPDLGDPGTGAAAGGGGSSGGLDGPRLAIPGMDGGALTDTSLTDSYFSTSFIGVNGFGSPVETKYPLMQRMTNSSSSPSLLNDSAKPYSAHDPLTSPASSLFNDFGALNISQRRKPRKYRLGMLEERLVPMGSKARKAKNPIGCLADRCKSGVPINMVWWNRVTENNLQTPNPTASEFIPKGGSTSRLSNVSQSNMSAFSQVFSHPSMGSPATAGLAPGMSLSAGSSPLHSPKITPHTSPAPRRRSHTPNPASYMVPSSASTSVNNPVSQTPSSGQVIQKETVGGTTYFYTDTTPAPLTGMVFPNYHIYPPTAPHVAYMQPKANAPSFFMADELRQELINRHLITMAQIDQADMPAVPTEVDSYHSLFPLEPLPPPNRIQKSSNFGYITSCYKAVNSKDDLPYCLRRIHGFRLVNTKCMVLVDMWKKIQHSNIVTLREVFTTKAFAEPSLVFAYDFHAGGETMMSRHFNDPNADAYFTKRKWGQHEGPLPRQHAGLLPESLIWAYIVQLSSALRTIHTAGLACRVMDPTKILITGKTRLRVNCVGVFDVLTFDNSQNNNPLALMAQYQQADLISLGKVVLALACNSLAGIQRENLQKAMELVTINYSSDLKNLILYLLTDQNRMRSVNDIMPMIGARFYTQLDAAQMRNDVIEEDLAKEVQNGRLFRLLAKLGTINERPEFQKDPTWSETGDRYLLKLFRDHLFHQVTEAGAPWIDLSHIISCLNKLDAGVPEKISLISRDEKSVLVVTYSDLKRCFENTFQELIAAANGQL

PIK3CB = PIK3CB (Homo sapiens, UniProt P42338); test: KiNativ, OCI cells live cell; assay type: cell-based; details: 2 h, labeling site ATP, peptide […]
PKCi = PKCi (Homo sapiens, UniProt P41743); test: KiNativ, OCI cells live cell; assay type: cell-based; details: 2 h
RSK1 domain1 = biological target: T4, RSK1 domain1 (Homo sapiens, UniProt Q15418); test: KiNativ, OCI cells live cell; assay type: cell-based; details: 2 h
T4 construct: RSK1 domain1

SGK3 = SGK3 (Homo sapiens, UniProt Q96BR1); test: KiNativ, OCI cells live cell; assay type: cell-based; details: 2 h, labeling site Lys1, peptide […]
40 kinases = details: 200 nM; 11 of 40 kinases; cited from earlier work

p70S6Kb, sequence (Q9UBS0 whole entry): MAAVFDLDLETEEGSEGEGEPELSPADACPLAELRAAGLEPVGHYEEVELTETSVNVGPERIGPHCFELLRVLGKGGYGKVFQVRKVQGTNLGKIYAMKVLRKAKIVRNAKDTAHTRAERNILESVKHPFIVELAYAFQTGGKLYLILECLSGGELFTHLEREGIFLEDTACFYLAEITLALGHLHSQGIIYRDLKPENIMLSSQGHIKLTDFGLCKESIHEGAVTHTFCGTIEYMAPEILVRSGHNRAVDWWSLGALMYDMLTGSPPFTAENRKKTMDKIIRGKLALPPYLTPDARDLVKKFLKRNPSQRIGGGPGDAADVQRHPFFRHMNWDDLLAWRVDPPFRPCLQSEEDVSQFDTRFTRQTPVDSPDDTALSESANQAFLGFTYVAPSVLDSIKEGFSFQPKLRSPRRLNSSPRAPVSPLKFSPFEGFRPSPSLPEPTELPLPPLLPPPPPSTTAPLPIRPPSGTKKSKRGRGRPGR
NDR2, sequence (Q9Y2H1 whole entry): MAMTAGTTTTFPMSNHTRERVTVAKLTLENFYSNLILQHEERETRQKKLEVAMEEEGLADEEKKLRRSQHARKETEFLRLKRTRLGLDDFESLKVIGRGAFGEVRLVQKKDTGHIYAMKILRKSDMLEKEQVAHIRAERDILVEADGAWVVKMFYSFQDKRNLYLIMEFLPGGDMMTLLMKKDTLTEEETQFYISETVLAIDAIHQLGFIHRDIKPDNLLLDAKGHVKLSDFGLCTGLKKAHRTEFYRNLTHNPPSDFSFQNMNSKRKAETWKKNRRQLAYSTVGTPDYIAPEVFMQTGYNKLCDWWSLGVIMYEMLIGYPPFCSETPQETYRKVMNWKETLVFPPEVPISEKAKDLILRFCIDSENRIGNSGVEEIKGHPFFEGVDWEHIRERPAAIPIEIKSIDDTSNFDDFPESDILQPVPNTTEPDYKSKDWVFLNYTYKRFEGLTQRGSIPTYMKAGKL
T4 sequence (Q15418 whole entry, the tested form may be a part): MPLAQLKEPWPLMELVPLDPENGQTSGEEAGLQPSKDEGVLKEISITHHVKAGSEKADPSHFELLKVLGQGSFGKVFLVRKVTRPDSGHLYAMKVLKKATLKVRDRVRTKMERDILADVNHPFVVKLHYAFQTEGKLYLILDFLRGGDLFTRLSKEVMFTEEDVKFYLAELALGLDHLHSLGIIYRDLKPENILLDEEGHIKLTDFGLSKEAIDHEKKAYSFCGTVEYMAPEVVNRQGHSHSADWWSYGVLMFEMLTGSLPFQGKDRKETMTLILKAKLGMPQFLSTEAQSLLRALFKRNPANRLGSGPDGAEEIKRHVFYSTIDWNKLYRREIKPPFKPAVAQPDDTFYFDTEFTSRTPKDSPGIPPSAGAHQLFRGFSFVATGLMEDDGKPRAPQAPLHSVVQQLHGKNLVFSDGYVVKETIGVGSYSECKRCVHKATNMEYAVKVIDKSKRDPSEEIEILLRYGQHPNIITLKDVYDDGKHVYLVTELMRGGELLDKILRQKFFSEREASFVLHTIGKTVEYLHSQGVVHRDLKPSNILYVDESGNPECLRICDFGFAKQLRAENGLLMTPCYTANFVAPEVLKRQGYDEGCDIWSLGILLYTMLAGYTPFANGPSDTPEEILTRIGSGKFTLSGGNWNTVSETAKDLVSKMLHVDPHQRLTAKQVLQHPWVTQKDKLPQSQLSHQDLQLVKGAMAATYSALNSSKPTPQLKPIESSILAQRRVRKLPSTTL
PKCi, sequence (P41743 whole entry, the tested form may be a part): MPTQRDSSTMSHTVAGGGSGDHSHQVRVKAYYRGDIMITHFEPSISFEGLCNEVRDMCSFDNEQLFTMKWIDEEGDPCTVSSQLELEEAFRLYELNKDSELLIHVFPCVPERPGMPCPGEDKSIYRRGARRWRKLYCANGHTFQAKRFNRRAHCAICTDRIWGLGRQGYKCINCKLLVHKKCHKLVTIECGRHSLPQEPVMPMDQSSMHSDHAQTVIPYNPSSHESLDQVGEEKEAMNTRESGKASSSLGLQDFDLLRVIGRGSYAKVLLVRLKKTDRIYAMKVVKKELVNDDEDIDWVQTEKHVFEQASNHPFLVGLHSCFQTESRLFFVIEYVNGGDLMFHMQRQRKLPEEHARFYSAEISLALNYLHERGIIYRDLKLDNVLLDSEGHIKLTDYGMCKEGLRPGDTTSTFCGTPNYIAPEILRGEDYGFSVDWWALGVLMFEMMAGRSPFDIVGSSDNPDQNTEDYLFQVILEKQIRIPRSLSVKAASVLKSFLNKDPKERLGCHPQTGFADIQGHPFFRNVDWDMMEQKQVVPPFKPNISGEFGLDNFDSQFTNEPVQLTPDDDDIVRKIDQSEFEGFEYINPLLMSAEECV
MAP4K5, sequence (Q9Y4K4 whole entry): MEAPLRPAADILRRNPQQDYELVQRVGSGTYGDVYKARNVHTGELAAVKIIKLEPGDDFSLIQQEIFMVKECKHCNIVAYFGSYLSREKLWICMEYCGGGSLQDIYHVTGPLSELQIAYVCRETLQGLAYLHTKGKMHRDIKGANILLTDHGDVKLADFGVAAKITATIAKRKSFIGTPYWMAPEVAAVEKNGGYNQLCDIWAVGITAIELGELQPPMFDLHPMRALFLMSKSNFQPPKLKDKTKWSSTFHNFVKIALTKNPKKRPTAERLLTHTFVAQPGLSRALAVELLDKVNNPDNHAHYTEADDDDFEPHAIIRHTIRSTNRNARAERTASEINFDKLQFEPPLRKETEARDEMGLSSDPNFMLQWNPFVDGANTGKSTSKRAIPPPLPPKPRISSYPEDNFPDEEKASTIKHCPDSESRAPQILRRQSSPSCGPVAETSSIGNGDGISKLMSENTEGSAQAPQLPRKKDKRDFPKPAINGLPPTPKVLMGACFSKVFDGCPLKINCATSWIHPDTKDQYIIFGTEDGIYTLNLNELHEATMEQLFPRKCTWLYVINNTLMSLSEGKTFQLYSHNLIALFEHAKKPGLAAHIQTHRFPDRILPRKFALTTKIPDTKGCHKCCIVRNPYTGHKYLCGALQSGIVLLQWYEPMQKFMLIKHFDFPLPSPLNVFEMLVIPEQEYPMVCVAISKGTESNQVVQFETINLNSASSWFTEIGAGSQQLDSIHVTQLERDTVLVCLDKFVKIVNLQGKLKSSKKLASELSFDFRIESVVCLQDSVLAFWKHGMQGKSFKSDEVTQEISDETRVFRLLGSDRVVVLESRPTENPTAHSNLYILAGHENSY
MAP3K1, sequence (Q13233 whole entry): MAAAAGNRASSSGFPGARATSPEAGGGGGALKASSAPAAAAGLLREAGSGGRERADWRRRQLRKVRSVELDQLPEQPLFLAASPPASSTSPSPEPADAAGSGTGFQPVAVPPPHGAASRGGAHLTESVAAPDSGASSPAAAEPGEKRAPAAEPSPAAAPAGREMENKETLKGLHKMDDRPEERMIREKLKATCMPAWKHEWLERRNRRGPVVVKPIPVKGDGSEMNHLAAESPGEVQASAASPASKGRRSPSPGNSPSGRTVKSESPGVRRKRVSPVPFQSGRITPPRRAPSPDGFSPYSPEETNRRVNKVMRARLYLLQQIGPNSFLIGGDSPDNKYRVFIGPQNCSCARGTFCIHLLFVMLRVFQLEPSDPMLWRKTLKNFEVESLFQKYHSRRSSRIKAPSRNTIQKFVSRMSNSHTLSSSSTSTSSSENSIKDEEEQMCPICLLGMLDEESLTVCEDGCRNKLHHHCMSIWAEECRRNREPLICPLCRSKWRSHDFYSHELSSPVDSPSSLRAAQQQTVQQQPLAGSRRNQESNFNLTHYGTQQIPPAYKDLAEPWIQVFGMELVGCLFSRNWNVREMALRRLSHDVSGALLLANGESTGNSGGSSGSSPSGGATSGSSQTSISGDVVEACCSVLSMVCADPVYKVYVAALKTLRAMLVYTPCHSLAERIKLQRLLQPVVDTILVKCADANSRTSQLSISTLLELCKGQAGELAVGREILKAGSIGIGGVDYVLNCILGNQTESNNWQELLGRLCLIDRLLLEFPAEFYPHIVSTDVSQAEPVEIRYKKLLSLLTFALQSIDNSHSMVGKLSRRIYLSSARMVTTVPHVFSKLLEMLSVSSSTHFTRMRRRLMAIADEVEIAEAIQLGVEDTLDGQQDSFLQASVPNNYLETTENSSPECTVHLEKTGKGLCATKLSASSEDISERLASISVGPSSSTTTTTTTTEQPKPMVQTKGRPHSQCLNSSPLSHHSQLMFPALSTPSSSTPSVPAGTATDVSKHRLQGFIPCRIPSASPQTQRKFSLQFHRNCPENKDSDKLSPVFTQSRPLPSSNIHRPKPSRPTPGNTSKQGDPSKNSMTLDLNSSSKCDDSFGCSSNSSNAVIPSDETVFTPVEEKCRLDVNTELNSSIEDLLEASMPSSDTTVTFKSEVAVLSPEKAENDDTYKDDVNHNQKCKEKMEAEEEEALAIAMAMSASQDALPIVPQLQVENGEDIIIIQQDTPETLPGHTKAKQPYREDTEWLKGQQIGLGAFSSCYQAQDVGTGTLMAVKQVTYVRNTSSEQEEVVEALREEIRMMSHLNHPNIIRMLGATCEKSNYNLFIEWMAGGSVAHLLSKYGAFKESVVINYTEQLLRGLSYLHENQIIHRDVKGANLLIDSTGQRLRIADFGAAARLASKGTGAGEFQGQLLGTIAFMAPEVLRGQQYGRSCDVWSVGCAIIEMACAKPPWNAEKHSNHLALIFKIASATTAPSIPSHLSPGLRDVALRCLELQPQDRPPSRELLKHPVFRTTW
MAP2K1, sequence (Q02750 whole entry): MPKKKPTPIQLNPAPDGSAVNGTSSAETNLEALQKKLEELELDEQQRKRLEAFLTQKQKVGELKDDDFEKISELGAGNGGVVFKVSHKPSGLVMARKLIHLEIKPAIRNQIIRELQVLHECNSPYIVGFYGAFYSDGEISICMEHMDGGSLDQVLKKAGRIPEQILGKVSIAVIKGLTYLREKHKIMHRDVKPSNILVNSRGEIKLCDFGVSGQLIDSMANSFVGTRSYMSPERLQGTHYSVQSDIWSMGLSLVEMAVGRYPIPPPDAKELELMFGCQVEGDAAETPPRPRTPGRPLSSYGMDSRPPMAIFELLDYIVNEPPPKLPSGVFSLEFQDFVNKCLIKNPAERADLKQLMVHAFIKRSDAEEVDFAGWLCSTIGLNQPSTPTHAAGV

CN1CCN(Cc2ccc(Nc3ncc(Cl)c(Nc4ccccc4S(=O)(=O)N(C)C)n3)cc2)CC1 [TP-0903]
Kd (JAK2): < 5 nM
Inhibition [1]: 17.4%
inhibition at 0.1 µM (CDK10): 10%
inhibition at 0.1 µM (IRAK3; labeling site Lys1, peptide VEIQNLTYAVKLFK): 87.9%
inhibition at 0.1 µM (IRAK3; labeling site Protein Kinase Domain, peptide SHLEHQSCTINMTSSSSKHLWYMPEEYIR): 94.9%
inhibition at 0.1 µM (MAP2K1): 14.7%
inhibition at 0.1 µM (MAP3K1): 57.6%
Inhibition (MAP3K2, MAP3K3): 21.4%
inhibition at 0.1 µM (MAP4K5; labeling site Lys1, peptide NVHTGELAAVKIIK): 28.4%
inhibition at 0.1 µM (MAP4K5; labeling site Lys2, peptide DIKGANILLTDHGDVK): 60.8%
inhibition at 0.1 µM (MARK2): 37.7%
inhibition at 0.1 µM (MLK4): 12.7%
inhibition at 0.1 µM (NDR2; labeling site Lys1, peptide DTGHIYAMKILR): 21.5%
inhibition at 0.1 µM (NDR2; labeling site Lys2, peptide DIKPDNLLLDAK): -7%
inhibition at 0.1 µM (p70S6Kb; labeling site Lys1, peptide IYAMKVLR): -2.8%
inhibition at 0.1 µM (p70S6Kb; labeling site Lys2, peptide DLKPENIMLSSQGHIK): -18.3%
inhibition at 0.1 µM (PAN3; peptide IQKSSNFGYITSCYK): -8.4%
inhibition at 0.1 µM (PAN3; peptide VMDPTKILITGK): -9.4%
inhibition at 0.1 µM (PIK3CB): -7.2%
inhibition at 0.1 µM (PKCi; labeling site Lys1, peptide IYAMKVVK): 9.2%
inhibition at 0.1 µM (PKCi; labeling site Lys2, peptide DLKLDNVLLDSEGHIK): 8.9%
inhibition at 0.1 µM (RSK1 domain1; labeling site Activation Loop, peptide LTDFGLSKEAIDHEKK): 44.9%
inhibition at 0.1 µM (RSK1 domain1; labeling site Lys1, peptide KVTRPDSGHLYAMKVLK): 42.9%
inhibition at 0.1 µM (SGK3): -12.3%
Inhibition of kinases (40 kinases): > 50%
